Source: PMC2212834 (The Journal of Experimental Medicine, 2005)

Biological target: T1, ChemR23 (Homo sapiens, UniProt Q99788)
T1 sequence (Q99788 1-373): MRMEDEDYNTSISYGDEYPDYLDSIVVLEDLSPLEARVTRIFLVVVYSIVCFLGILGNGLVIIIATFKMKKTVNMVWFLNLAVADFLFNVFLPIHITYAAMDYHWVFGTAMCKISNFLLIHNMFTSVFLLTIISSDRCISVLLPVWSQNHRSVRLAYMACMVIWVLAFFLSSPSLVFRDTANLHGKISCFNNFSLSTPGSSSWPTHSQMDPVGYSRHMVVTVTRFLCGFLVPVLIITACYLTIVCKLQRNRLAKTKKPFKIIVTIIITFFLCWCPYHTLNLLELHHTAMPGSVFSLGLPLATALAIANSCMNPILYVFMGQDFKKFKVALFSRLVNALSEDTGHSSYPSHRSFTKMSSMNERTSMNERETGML
Experiment: [3H]-RvE1 saturation radioligand binding
Format: cell-based

Compound CC[C@@H](O)/C=C/C=C\C[C@@H](O)/C=C/C=C/C=C\[C@@H](O)CCCC(=O)O [RvE1, 5S,12R,18R-trihydroxy-6Z,8E,10E,14Z,16E-EPA] has a Kd of 11.3 ± 5.4 nM.
